Assay results: BindingDB's records for doi:10.1021/bi051886s (Johnson & Johnson Pharmaceutical, 2006)
pKi: −log10 of the molar value.

How the values were obtained:
Test in all cases: Protease Inhibition Assay
[1] = target: T1, Dimer of Gag-Pol polyprotein [501-599,V583F] (Human immunodeficiency virus 1, UniProt P03367, V583F); details: pH 4.7; 37 °C
T1 construct: 501-599

[2] = target: T2, Dimer of Gag-Pol polyprotein [490-588,L523I,E525D,M526I,I544V,L553H,H559K,L579M] (Human immunodeficiency virus 1, UniProt P05959, E525D/H559K/I544V/L523I/L553H/L579M/M526I)
T2 construct: 490-588

[3] = target: T3, Dimer of Gag-Pol polyprotein [490-588,L523I,E525D,M526I,I544V,L553H,H559K,V572F,L579M] (Human immunodeficiency virus 1, UniProt P05959, E525D/H559K/I544V/L523I/L553H/L579M/M526I/V572F)
T3 construct: 490-588

[4] = target: T4, Dimer of Gag-Pol polyprotein [501-599] (Human immunodeficiency virus 1, UniProt P03367); details: pH 4.7; 37 °C
T4 construct: 501-599

[5] = target: T5, Dimer of Gag-Pol polyprotein [482-580,I502K,I528M,T553A,V564F] (Human immunodeficiency virus 1, UniProt P24740, I502K/I528M/T553A/V564F)
T5 construct: 482-580

[6] = target: T6, Dimer of Gag-Pol polyprotein [482-580,I502K,I528M,T553A] (Human immunodeficiency virus 1, UniProt P24740, I502K/I528M/T553A); details: pH 4.7; 37 °C
T6 construct: 482-580

Row | SMILES | pKi [1] | pKi [2] | pKi [3] | pKi [4] | pKi [5] | pKi [6]
1 | Cc1cccc(C)c1OCC(=O)N[C@@H](Cc1ccccc1)[C@@H](O)C[C@H](Cc1ccccc1)NC(=O)[C@H](C(C)C)N1CCCNC1=O [(2S)-N-[(2S,4S,5S)-5-[2-(2,6-dimethylphenoxy)acetamido]-4-hydroxy-1,6-diphenylhexan-2-yl]-3-methyl-2-(2-oxo-1,3-diazinan-1-yl)butanamide] | 9.70 | 9.30 | 8.05 | 10.30 | 9.32 | 10.72
2 | COC(=O)N[C@H](C(=O)N[C@@H](Cc1ccccc1)[C@@H](O)CN(Cc1ccc(-c2ccccn2)cc1)NC(=O)[C@@H](NC(=O)OC)C(C)(C)C)C(C)(C)C [CGP 73547] | 9.25 | 8.96 | 9.15 |  | 9.24 | 9.62
3 | CC(C)(C)NC(=O)[C@@H]1CN(Cc2cccnc2)CCN1C[C@@H](O)C[C@@H](Cc1ccccc1)C(=O)N[C@H]1c2ccccc2C[C@H]1O [Crixivan] |  | 7.38 | 5.79 |  | 6.97 | 8.16
4 | CC(C)(C)NC(=O)[C@@H]1C[C@@H]2CCCC[C@@H]2CN1C[C@@H](O)[C@H](Cc1ccccc1)NC(=O)[C@H](CC(N)=O)NC(=O)c1ccc2ccccc2n1 [SQV] |  | 7.32 | 7.62 |  | 9.37 | 8.74
5 | CC(C)CN(C[C@@H](O)[C@H](Cc1ccccc1)NC(=O)O[C@H]1CCOC1)S(=O)(=O)c1ccc(N)cc1 [VX-478] |  | 8.85 | 7.64 |  | 8.92 | 9.40
6 | Cc1c(O)cccc1C(=O)N[C@@H](CSc1ccccc1)[C@H](O)CN1C[C@H]2CCCC[C@H]2C[C@H]1C(=O)NC(C)(C)C [Viracept] |  | 7.77 | 6.84 |  |  | 
